# Test results: patent US20250000924A1, “Composition for the prevention, improvement or treatment of allergic disease comprising an extract of Taxus cuspidata as an active ingredient” (KOREA INSTITUTE OF SCIENCE AND TECHNOLOGY, priority 2023, published 2025)
# Tested on: mast cells
# Assay: Anti-allergic effect of active ingredients derived from Taxus cuspidata extract (degranulation, PGE2, TNF-α, IL-4 overall)
# Format: cell-based, rat
# Details: overall statement on FIGS. 13 to 16; compounds at 20 μM
# Method: Mast cells were cultured in the same manner as in Example 2 above, and then treated with the nine compounds isolated in Example 11 above at a concentration of 20 μM, respectively.
# Mast cells were cultured in the same manner as in Example 3 above, and then treated with the nine compounds isolated in Example 11 above at a concentration of 20 μM, respectively.
# • treated with the 9 compounds isolated in Example 11 at a concentration of 20 μM, respectively.
# Mast cells were cultured in the same manner as in Example 5 above, and then treated with the nine compounds isolated in Example 11 above at a concentration of 20 μM, respectively.
row,SMILES,anti-allergy effects
1,COc1cc(O)cc(OC)c1 [Taxicatigenin],excellent
2,OCCCc1ccc(O)cc1 [3-(4-Hydroxyphenyl)-1-propanol],excellent
3,O=Cc1ccc(O)cc1 [4-hydroxyl benzandehyde],excellent
